Counter-ions that a name gives are not always drawn. Where only a bound is given, the exact number is not on record here.

The target in the assay is T1, URAT-1 transporter (Homo sapiens, UniProt Q96S37).
T1 construct: expressed in transfected cells
T1 sequence (Q96S37 with tags, fused parts or gaps): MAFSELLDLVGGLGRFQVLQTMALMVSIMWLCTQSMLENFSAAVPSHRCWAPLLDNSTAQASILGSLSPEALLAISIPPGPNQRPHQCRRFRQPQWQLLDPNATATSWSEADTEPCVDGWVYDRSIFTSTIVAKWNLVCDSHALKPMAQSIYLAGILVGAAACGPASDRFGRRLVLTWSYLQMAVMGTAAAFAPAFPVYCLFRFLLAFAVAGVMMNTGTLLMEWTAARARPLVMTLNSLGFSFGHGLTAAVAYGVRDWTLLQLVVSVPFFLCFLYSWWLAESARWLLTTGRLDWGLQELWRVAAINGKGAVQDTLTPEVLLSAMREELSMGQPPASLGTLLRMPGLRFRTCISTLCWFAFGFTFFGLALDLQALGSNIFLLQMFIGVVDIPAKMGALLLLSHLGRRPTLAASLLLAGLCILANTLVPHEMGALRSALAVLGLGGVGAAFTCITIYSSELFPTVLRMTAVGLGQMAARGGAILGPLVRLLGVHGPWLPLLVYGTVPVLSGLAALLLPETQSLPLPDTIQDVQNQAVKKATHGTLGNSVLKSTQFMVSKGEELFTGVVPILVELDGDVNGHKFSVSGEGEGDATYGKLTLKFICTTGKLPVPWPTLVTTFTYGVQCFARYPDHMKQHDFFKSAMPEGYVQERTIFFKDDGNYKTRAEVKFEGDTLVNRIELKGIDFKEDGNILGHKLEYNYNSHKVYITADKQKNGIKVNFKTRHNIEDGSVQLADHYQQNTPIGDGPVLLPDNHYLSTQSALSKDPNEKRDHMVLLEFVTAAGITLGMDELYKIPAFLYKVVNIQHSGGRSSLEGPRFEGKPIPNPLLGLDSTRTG
As to the kind of experiment: URAT-1 inhibitor activity: [14C]-uric acid uptake into CHO-URAT1(L)GFP#8 (CHO#8) cells, scintillation proximity. It counts as cell-based. The procedure, abridged: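 CHO cells stably expressing human URAT1 long isoform C-terminally fused to eGFP, preincubated 1 hour in chloride-containing buffer, then 15 minutes with compound (0–10 μM, 0.25% DMSO) in chloride-free buffer pH 7.4. [14C]-uric acid at 30 nM final added; uptake read by scintillation proximity after three hours at room temperature, dark.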
In the case of `COc1cc(Cl)ccc1Oc1ccc(S(=O)(=O)Nc2nncs2)c(Cl)c1` [Example 82, 2-chloro-4-(4-chloro-2-methoxyphenoxy)-N-(1,3,4-thiadiazol-2-yl)benzenesulfonamide diethylamine salt], the IC50 (in general, the concentration needed to halve the response being measured) worked out at 340 nM.
For `N#Cc1cc(S(=O)(=O)Nc2ncns2)ccc1Oc1ccc(F)c(F)c1` [compound 212], the IC50 was 782 nM.
Turning to `N#Cc1cc(Oc2cc(F)c(S(=O)(=O)Nc3cscn3)cc2F)ccc1F` [compound 221], the IC50 is > 10000 nM.
`Cc1cccc(Cl)c1Oc1ccc(S(=O)(=O)Nc2ncc(F)s2)cc1C#N` [Example 127, 4-(2-chloro-6-methylphenoxy)-3-cyano-N-(5-fluoro-1,3-thiazol-2-yl)benzenesulfonamide] showed an IC50 of 2290 nM.
For `N#Cc1cc(Oc2c(F)cc(S(=O)(=O)Nc3ncns3)cc2F)ccc1F` [compound 205], the IC50 is > 6810 nM.
Turning to `N#Cc1cc(S(=O)(=O)Nc2ncc(F)s2)ccc1Oc1cccc(Cl)c1` [Example 110, 4-(3-chlorophenoxy)-3-cyano-N-(5-fluoro-1,3-thiazol-2-yl)benzenesulfonamide], the IC50 was > 7540 nM.
Take `COc1ccc(C)cc1Oc1cc(F)c(S(=O)(=O)Nc2nncs2)cc1Cl` [compound 300]: it took 329 nM to reach half-maximal inhibition (IC50).
With `COc1ncc(Oc2ccc(S(=O)(=O)Nc3nncs3)cc2C#N)cc1Cl` [Example 338], the IC50 turned out to be 797 nM.
`O=S(=O)(Nc1ncns1)c1ccc(Oc2cccc(C(F)(F)F)c2F)c(Cl)c1` [Example 65, 3-chloro-4-[2-fluoro-3-(trifluoromethyl)phenoxy]-N-(1,2,4-thiadiazol-5-yl)benzenesulfonamide diethylamine salt] displayed an IC50 of 1490 nM.
`Cc1ccc(Oc2ccc(S(=O)(=O)Nc3ncns3)cc2C#N)cc1` [compound 258]: half-maximal inhibition (IC50) was put at 3120 nM.
The figure for `Cc1nnc(NS(=O)(=O)c2ccc(Oc3ccc(C#N)c(Cl)c3)c(C#N)c2)s1` [Example 340, 4-(3-chloro-4-cyanophenoxy)-3-cyano-N-(5-methyl-1,3,4-thiadiazol-2-yl)benzenesulfonamide] is 484 nM.
On to `N#Cc1cc(S(=O)(=O)Nc2nncs2)ccc1Oc1ccc(F)c(F)c1` [compound 201], for which 651 nM corresponded to half-maximal inhibition (IC50).
The result for `N#Cc1ccc(Oc2ccc(S(=O)(=O)Nc3ncns3)cc2C#N)c(OC(F)F)c1` [Example 23, 3-cyano-4-[4-cyano-2-(difluoromethoxy)phenoxy]-N-(1,2,4-thiadiazol-5-yl)benzenesulfonamide] reads > 10000 nM; that for `N#Cc1cc(S(=O)(=O)Nc2ncc(F)s2)ccc1Oc1c(F)cccc1F` [Example 94, 3-cyano-4-(2,6-difluorophenoxy)-N-(5-fluoro-1,3-thiazol-2-yl)benzenesulfonamide], 621 nM; that for `CC(C)c1cccc(Oc2cc(F)c(S(=O)(=O)Nc3nccs3)cc2F)c1` [Example 67, 2,5-difluoro-4-[3-(propan-2-yl)phenoxy]-N-(1,3-thiazol-2-yl)benzenesulfonamide], > 7580 nM.
The figure for `COc1ccccc1Oc1cc(F)c(S(=O)(=O)Nc2nncs2)cc1Cl` [compound 305] is > 5780 nM; for `N#Cc1ccc(Oc2ccc(S(=O)(=O)Nc3ncns3)cc2C#N)cc1Cl` [compound 218] it is > 1660 nM; for `N#Cc1ccc(Oc2ccc(S(=O)(=O)Nc3cscn3)cc2C#N)cc1Cl` [compound 220, 4-(3-chloro-4-cyanophenoxy)-3-cyano-N-(1,3-thiazol-4-yl)benzenesulfonamide] it is 110 nM.
With `N#Cc1ccc(Oc2ccc(S(=O)(=O)Nc3ncns3)cc2C#N)cc1` [Example 15, 3-cyano-4-(4-cyanophenoxy)-N-(1,2,4-thiadiazol-5-yl)benzenesulfonamide diethylamine salt], the IC50 was > 7370 nM.
For the compound `N#Cc1cc(S(=O)(=O)Nc2ncns2)ccc1Oc1ccc(F)cc1F` [Example 43, 3-cyano-4-(2,4-difluorophenoxy)-N-(1,2,4-thiadiazol-5-yl)benzenesulfonamide], the IC50 came out at 877 nM.
`N#Cc1cc(S(=O)(=O)Nc2ncns2)ccc1Oc1ccc(C(F)(F)F)cc1C(F)(F)F` [Example 33, 4-[2,4-bis(trifluoromethyl)phenoxy]-3-cyano-N-(1,2,4-thiadiazol-5-yl)benzenesulfonamide]: it took 6190 nM to reach half-maximal inhibition (IC50).
With `O=S(=O)(Nc1ncns1)c1cc(F)c(Oc2ccc(F)c(F)c2)c(F)c1` [compound 198], the IC50 came to 2190 nM.
In the case of `O=S(=O)(Nc1ncc(F)s1)c1ccc(Oc2ccc(Cl)cc2C(F)(F)F)c(F)c1` [Example 61, 4-[4-chloro-2-(trifluoromethyl)phenoxy]-3-fluoro-N-(5-fluoro-1,3-thiazol-2-yl)benzenesulfonamide], the IC50 is > 10000 nM.
Regarding `Cc1ccnc(C)c1Oc1ccc(S(=O)(=O)Nc2ncns2)cc1C#N` [compound 275, trifluoroacetic acid salt], the half-inhibitory concentration (IC50) was > 10000 nM.
As to `CC(C)(C)c1ccc(Oc2ccc(S(=O)(=O)Nc3ncns3)cc2C#N)c(Cl)c1` [Example 38, 4-(4-tert-butyl-2-chlorophenoxy)-3-cyano-N-(1,2,4-thiadiazol-5-yl)benzenesulfonamide], the IC50 is > 7100 nM.
Turning to `CCOc1cc(C)ccc1Oc1cc(F)c(S(=O)(=O)Nc2nncs2)cc1Cl` [compound 331], the half-inhibitory concentration (IC50) is > 6720 nM.
Regarding `CC(C)(C)c1cccc(Oc2ccc(S(=O)(=O)Nc3ncc(F)s3)cc2C#N)c1` [Example 137, 4-(3-tert-butylphenoxy)-3-cyano-N-(5-fluoro-1,3-thiazol-2-yl)benzenesulfonamide], the IC50 was > 8950 nM.
With `N#Cc1cc(S(=O)(=O)Nc2nccs2)ccc1Oc1ccc(OCC(F)(F)F)nc1` [Example 190, 3-cyano-N-(1,3-thiazol-2-yl)-4-{[6-(2,2,2-trifluoroethoxy)pyridin-3-yl]oxy}benzenesulfonamide], the IC50 is > 10000 nM.
On to `N#Cc1cc(Oc2ccc(S(=O)(=O)Nc3nccs3)cc2F)ccc1F` [compound 242], for which half-maximal inhibition (IC50) required 967 nM.
On to `COc1cc(Cl)cc(Oc2cc(F)c(S(=O)(=O)Nc3nncs3)cc2Cl)c1` [compound 302], for which the IC50 is 1060 nM.
Take `CCc1cc(F)ccc1Oc1ccc(S(=O)(=O)Nc2nccs2)c(F)c1` [Example 72, 4-(2-ethyl-4-fluorophenoxy)-2-fluoro-N-(1,3-thiazol-2-yl)benzenesulfonamide]: the IC50 is > 10000 nM.
With `N#Cc1cc(S(=O)(=O)Nc2nccs2)ccc1Oc1ccc(OC(F)(F)F)cc1Br` [compound 164], the IC50 is > 10000 nM.
Consider `CC(C)c1cccc(Oc2ccc(S(=O)(=O)Nc3ncns3)cc2Cl)c1` [Example 63, 3-chloro-4-[3-(propan-2-yl)phenoxy]-N-(1,2,4-thiadiazol-5-yl)benzenesulfonamide diethylamine salt], for which half-maximal inhibition (IC50) was put at 1440 nM.
On to `CCOc1cc(Cl)ccc1Oc1ccc(S(=O)(=O)Nc2ncns2)cc1C#N` [Example 12, 4-(4-chloro-2-ethoxyphenoxy)-3-cyano-N-(1,2,4-thiadiazol-5-yl)benzenesulfonamide], for which the IC50 is 354 nM.
The figure for `CSc1ncccc1Oc1cc(F)c(S(=O)(=O)Nc2nncs2)cc1Cl` [compound 310] is 864 nM; for `COc1c(Oc2ccc(S(=O)(=O)Nc3ncns3)cc2C#N)ccc(F)c1C` [compound 266] it is 1570 nM.
As for `CCOc1cccc(Oc2ccc(S(=O)(=O)Nc3ncns3)cc2C#N)c1` [compound 280], the midpoint of inhibition, the IC50, lay at 2290 nM.
As for `CC(C)c1ncccc1Oc1cc(F)c(S(=O)(=O)Nc2nncs2)cc1Cl` [compound 298], the IC50 amounted to 4390 nM.
The figure for `N#Cc1cc(Oc2ccc(S(=O)(=O)Nc3nncs3)cc2Cl)ccc1F` [compound 216] is 1420 nM.
As for `O=S(=O)(Nc1cscn1)c1cc(Cl)c(Oc2ccc(C(F)(F)F)cc2Br)cc1F` [Example 161, 4-[2-bromo-4-(trifluoromethyl)phenoxy]-5-chloro-2-fluoro-N-(1,3-thiazol-4-yl)benzenesulfonamide], the IC50 was > 4850 nM.
In the case of `CN(C)c1ccc(Oc2ccc(S(=O)(=O)Nc3nccs3)cc2C#N)cn1` [Example 186, 3-cyano-4-{[6-(dimethylamino)pyridin-3-yl]oxy}-N-(1,3-thiazol-2-yl)benzenesulfonamide], the concentration for half-maximal inhibition (IC50) stood at 1080 nM.
The figure for `O=S(=O)(Nc1cscn1)c1ccc(Oc2ccc(F)c(F)c2)cc1Cl` [compound 237] is > 10000 nM; for `O=S(=O)(Nc1ncns1)c1ccc(Oc2ccc(F)c(F)c2)c(F)c1` [compound 195] it is 2240 nM; for `N#Cc1cc(S(=O)(=O)Nc2ncc(F)s2)ccc1Oc1cc(F)cc(Cl)c1` [Example 126, 4-(3-chloro-5-fluorophenoxy)-3-cyano-N-(5-fluoro-1,3-thiazol-2-yl)benzenesulfonamide] it is 699 nM.
In the case of `COc1c(Cl)cccc1Oc1ccc(S(=O)(=O)Nc2ncns2)cc1C#N` [compound 283], the IC50 was > 8570 nM.
With `N#Cc1cc(S(=O)(=O)Nc2ncc(F)s2)ccc1Oc1cccc(C(F)(F)F)c1` [Example 133, 3-cyano-N-(5-fluoro-1,3-thiazol-2-yl)-4-[3-(trifluoromethyl)phenoxy]benzenesulfonamide], the IC50 was 1580 nM.
Take `N#Cc1cc(S(=O)(=O)Nc2ncc(F)s2)ccc1Oc1cc(F)c(F)c(F)c1` [Example 118, 3-cyano-N-(5-fluoro-1,3-thiazol-2-yl)-4-(3,4,5-trifluorophenoxy)benzenesulfonamide]: the IC50 was 1380 nM.
In the case of `COc1cc(F)cc(Oc2ccc(S(=O)(=O)Nc3ncc(F)s3)cc2C#N)c1` [Example 122, 3-cyano-4-(3-fluoro-5-methoxyphenoxy)-N-(5-fluoro-1,3-thiazol-2-yl)benzenesulfonamide], the IC50 worked out at 581 nM.
On to `N#Cc1cc(S(=O)(=O)Nc2ncns2)ccc1Oc1cccc(Cl)c1F` [Example 48, 4-(3-chloro-2-fluorophenoxy)-3-cyano-N-(1,2,4-thiadiazol-5-yl)benzenesulfonamide], for which the IC50 was determined as 1960 nM.

(Values after patent US20140315933A1, “CHEMICAL COMPOUNDS” (Pfizer Limited, priority 2013, published 2014).)
